Results reported in patent US8952024B2, “Herbicidal pyrimidone derivatives” (E I du Pont de Nemours and Company, priority 2009, dated 2015).

Assays:
Type in all cases: in vivo
[1] = system: wheat (Triticum aestivum); assay: Test B pre-/postemergence plant response
Outline: (§1)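 Pre-em in loam/sand; post-em at 1–4 leaf (2–18 cm) in peat mix. Solvent + surfactant formulation. Greenhouse 13–15 d; visual % control vs untreated, 0–100.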

[2] = system: morningglory (Ipomoea coccinea); assay: Test B pre-/postemergence plant response
Outline: as §1

[3] = system: velvetleaf (Abutilon theophrasti); assay: Test B pre-/postemergence plant response
Outline: as §1

[4] = system: downy bromegrass (Bromus tectorum); assay: Test B pre-/postemergence plant response
Outline: as §1

wild oat (Avena fatua) = assay: Test B pre-/postemergence plant response
Outline: as §1

soybean (Glycine max) = assay: Test B pre-/postemergence plant response
Outline: as §1

[5] = system: cocklebur (Xanthium strumarium); assay: Test B pre-/postemergence plant response
Outline: as §1

[6] = system: bermudagrass (Cynodon dactylon); assay: Test B pre-/postemergence plant response
Outline: as §1

[7] = system: green foxtail (Setaria viridis); assay: Test B pre-/postemergence plant response
Outline: as §1

kochia (Kochia scoparia) = assay: Test B pre-/postemergence plant response
Outline: as §1

[8] = system: ragweed (common ragweed, Ambrosia elatior); assay: Test B pre-/postemergence plant response
Outline: as §1

[9] = system: johnsongrass (Sorghum halepense); assay: Test B pre-/postemergence plant response
Outline: as §1

[10] = system: yellow nutsedge (Cyperus esculentus); assay: Test B pre-/postemergence plant response
Outline: as §1

[11] = system: giant foxtail (Setaria faberii); assay: Test B pre-/postemergence plant response
Outline: as §1

[12] = system: blackgrass (Alopecurus myosuroides); assay: Test B pre-/postemergence plant response
Outline: as §1

[13] = system: chickweed (Stellaria media); assay: Test B postemergence plant response
Outline: (§2)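 Plants grown in peat/vermiculite medium were sprayed postemergence at 2–18 cm height (1- to 4-leaf stage). After 13–15 days in the greenhouse, response was rated visually against untreated controls on a 0–100 scale (0 no effect, 100 complete control).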

[14] = system: windgrass (Apera spica-venti); assay: Test B postemergence plant response
Outline: as §2

[15] = system: canarygrass (Phalaris minor); assay: Test B postemergence plant response
Outline: as §2

[16] = 31 g ai/ha, postemergence, scale 0 to 100, 0 is no effect, 100 is complete control
[17] = Postemergence, 125 g ai/ha, visual rating after 13 to 15 days, scale 0 (no effect) to 100 (complete control)
[18] = Postemergence, 250 g ai/ha, scale 0 to 100 (0 no effect, 100 complete control)
[19] = Preemergence, 31 g ai/ha, scale 0 to 100 (0 no effect, 100 complete control)
[20] = Preemergence, 62 g ai/ha, scale 0 to 100, 0 no effect, 100 complete control
[21] = Preemergence, 125 g ai/ha, scale 0 to 100, 0 no effect, 100 complete control
[22] = Postemergence, 62 g ai/ha, scale 0 (no effect) to 100 (complete control), 13 to 15 days
[23] = 250 g ai/ha, Preemergence, 0 to 100 scale

`O=C1CCCC(O)=C1C(=O)c1cnc(-c2cccs2)n(-c2ccccc2)c1=O` [Compound 66] was tested, and the “Plant response rating, Wheat” value [1, 16] was 0, the “Plant response rating, Wheat” value [1, 17] was 0 and the “Plant response rating, Wheat” value [1, 18] was 0. For the same compound, the “Plant response rating, Wheat” value [1, 19] was 0, the “Plant response rating, Wheat” value [1, 20] was 0 and the “Plant response rating, Wheat” value [1, 21] was 0. The “Plant response rating, Morningglory” value [2, 16] was 98, the “Plant response rating, Morningglory” value [2, 22] was 100 and the “Plant response rating, Morningglory” value [2, 17] was 100. For the same compound, the “Plant response rating, Morningglory” value [2, 18] was 100, the “Plant response rating, Morningglory” value [2, 19] was 0 and the “Plant response rating, Morningglory” value [2, 20] was 20. The “Plant response rating, Morningglory” value [2, 21] was 25, the “Plant response rating, Velvetleaf” value [3, 16] was 85 and the “Plant response rating, Velvetleaf” value [3, 22] was 90. The “Plant response rating, Velvetleaf” value [3, 17] was 98, the “Plant response rating, Velvetleaf” value [3, 18] was 100 and the “Plant response rating, Velvetleaf” value [3, 19] was 80. For the same compound, the “Plant response rating, Velvetleaf” value [3, 20] was 80, the “Plant response rating, Velvetleaf” value [3, 21] was 95 and the “Plant response rating, Bromegrass, Downy” value [4, 16] was 5. For the same compound, the “Plant response rating, Bromegrass, Downy” value [4, 23] was 0, the “Plant response rating, Bromegrass, Downy” value [4, 22] was 10 and the “Plant response rating, Bromegrass, Downy” value [4, 17] was 20. For the same compound, the “Plant response rating, Bromegrass, Downy” value [4, 18] was 25, the “Plant response rating, Bromegrass, Downy” value [4, 19] was 0 and the “Plant response rating, Bromegrass, Downy” value [4, 20] was 0. For the same compound, the “Plant response rating, Bromegrass, Downy” value [4, 21] was 0, the “Plant response rating, Oat, Wild” value (wild oat (Avena fatua); [16]) was 0 and the “Plant response rating, Oat, Wild” value (wild oat (Avena fatua); [22]) was 0. For the same compound, the “Plant response rating, Oat, Wild” value (wild oat (Avena fatua); [17]) was 5, the “Plant response rating, Oat, Wild” value (wild oat (Avena fatua); [18]) was 10 and the “Plant response rating, Oat, Wild” value (wild oat (Avena fatua); [19]) was 0. The “Plant response rating, Oat, Wild” value (wild oat (Avena fatua); [20]) was 0, the “Plant response rating, Oat, Wild” value (wild oat (Avena fatua); [21]) was 0 and the “Plant response rating, Soybean” value (soybean (Glycine max); [16]) was 95. The “Plant response rating, Soybean” value (soybean (Glycine max); [22]) was 95, the “Plant response rating, Soybean” value (soybean (Glycine max); [17]) was 98 and the “Plant response rating, Soybean” value (soybean (Glycine max); [18]) was 98. For the same compound, the “Plant response rating, Cocklebur” value [5, 16] was 10, the “Plant response rating, Cocklebur” value [5, 23] was 0 and the “Plant response rating, Cocklebur” value [5, 22] was 10. The “Plant response rating, Cocklebur” value [5, 17] was 25, the “Plant response rating, Cocklebur” value [5, 18] was 45 and the “Plant response rating, Cocklebur” value [5, 19] was 0. The “Plant response rating, Cocklebur” value [5, 20] was 0, the “Plant response rating, Cocklebur” value [5, 21] was 0 and the “Plant response rating, Bermudagrass” value [6, 16] was 70. For the same compound, the “Plant response rating, Bermudagrass” value [6, 23] was 98, the “Plant response rating, Bermudagrass” value [6, 22] was 70 and the “Plant response rating, Bermudagrass” value [6, 17] was 95. For the same compound, the “Plant response rating, Bermudagrass” value [6, 18] was 95, the “Plant response rating, Bermudagrass” value [6, 19] was 20 and the “Plant response rating, Bermudagrass” value [6, 20] was 80. For the same compound, the “Plant response rating, Bermudagrass” value [6, 21] was 98, the “Plant response rating, Foxtail, Green” value [7, 16] was 80 and the “Plant response rating, Foxtail, Green” value [7, 23] was 75. For the same compound, the “Plant response rating, Foxtail, Green” value [7, 22] was 85, the “Plant response rating, Foxtail, Green” value [7, 17] was 90 and the “Plant response rating, Foxtail, Green” value [7, 18] was 98. For the same compound, the “Plant response rating, Foxtail, Green” value [7, 19] was 0, the “Plant response rating, Foxtail, Green” value [7, 20] was 5 and the “Plant response rating, Foxtail, Green” value [7, 21] was 30. For the same compound, the “Plant response rating, Kochia” value (kochia (Kochia scoparia); [16]) was 80, the “Plant response rating, Kochia” value (kochia (Kochia scoparia); [23]) was 85 and the “Plant response rating, Kochia” value (kochia (Kochia scoparia); [22]) was 85. The “Plant response rating, Kochia” value (kochia (Kochia scoparia); [17]) was 90, the “Plant response rating, Kochia” value (kochia (Kochia scoparia); [18]) was 98 and the “Plant response rating, Kochia” value (kochia (Kochia scoparia); [19]) was 80. The “Plant response rating, Kochia” value (kochia (Kochia scoparia); [20]) was 80, the “Plant response rating, Kochia” value (kochia (Kochia scoparia); [21]) was 85 and the “Plant response rating, Ragweed” value [8, 16] was 0. The “Plant response rating, Ragweed” value [8, 22] was 10, the “Plant response rating, Ragweed” value [8, 17] was 25 and the “Plant response rating, Ragweed” value [8, 18] was 60. For the same compound, the “Plant response rating, Ragweed” value [8, 19] was 0, the “Plant response rating, Ragweed” value [8, 20] was 0 and the “Plant response rating, Ragweed” value [8, 21] was 45. The “Plant response rating, Johnsongrass” value [9, 16] was 45, the “Plant response rating, Johnsongrass” value [9, 23] was 98 and the “Plant response rating, Johnsongrass” value [9, 22] was 60. The “Plant response rating, Johnsongrass” value [9, 17] was 65, the “Plant response rating, Johnsongrass” value [9, 18] was 65 and the “Plant response rating, Johnsongrass” value [9, 19] was 0. The “Plant response rating, Johnsongrass” value [9, 20] was 55, the “Plant response rating, Johnsongrass” value [9, 21] was 85 and the “Plant response rating, Nutsedge, Yellow” value [10, 16] was 25. For the same compound, the “Plant response rating, Nutsedge, Yellow” value [10, 22] was 45, the “Plant response rating, Nutsedge, Yellow” value [10, 17] was 65 and the “Plant response rating, Nutsedge, Yellow” value [10, 18] was 70. For the same compound, the “Plant response rating, Nutsedge, Yellow” value [10, 19] was 10, the “Plant response rating, Nutsedge, Yellow” value [10, 20] was 30 and the “Plant response rating, Nutsedge, Yellow” value [10, 21] was 85. For the same compound, the “Plant response rating, Foxtail, Giant” value [11, 16] was 65, the “Plant response rating, Foxtail, Giant” value [11, 23] was 80 and the “Plant response rating, Foxtail, Giant” value [11, 22] was 75. For the same compound, the “Plant response rating, Foxtail, Giant” value [11, 17] was 80, the “Plant response rating, Foxtail, Giant” value [11, 18] was 95 and the “Plant response rating, Foxtail, Giant” value [11, 19] was 15. For the same compound, the “Plant response rating, Foxtail, Giant” value [11, 20] was 20, the “Plant response rating, Foxtail, Giant” value [11, 21] was 75 and the “Plant response rating, Blackgrass” value [12, 16] was 5. For the same compound, the “Plant response rating, Blackgrass” value [12, 23] was 5, the “Plant response rating, Blackgrass” value [12, 22] was 10 and the “Plant response rating, Blackgrass” value [12, 17] was 10. The “Plant response rating, Blackgrass” value [12, 18] was 15, the “Plant response rating, Blackgrass” value [12, 19] was 0 and the “Plant response rating, Blackgrass” value [12, 20] was 0. The “Plant response rating, Blackgrass” value [12, 21] was 5, the “Plant response rating, Chickweed” value [13, 16] was 80 and the “Plant response rating, Chickweed” value [13, 22] was 85. For the same compound, the “Plant response rating, Chickweed” value [13, 17] was 95, the “Plant response rating, Chickweed” value [13, 18] was 98 and the “Plant response rating, Windgrass” value [14, 16] was 60. For the same compound, the “Plant response rating, Windgrass” value [14, 22] was 60, the “Plant response rating, Windgrass” value [14, 17] was 70 and the “Plant response rating, Windgrass” value [14, 18] was 80. The “Plant response rating, Canarygrass” value [15, 16] was 0, the “Plant response rating, Canarygrass” value [15, 22] was 0 and the “Plant response rating, Canarygrass” value [15, 17] was 0. The “Plant response rating, Canarygrass” value [15, 18] was 0.
